Source: patent US8338472B2, “Hexahydrocyclopentyl[F]indazole carboxamides and derivatives thereof as selective glucocorticoid receptor modulators” (Merck Sharp & Dohme Corp., priority 2008, dated 2012)
Read-outs that look alike come from different tables or passages of the source.

Experiments:
[1] = target: T1, Glucocorticoid Receptor (Homo sapiens, UniProt P04150); test: Trans-Activation Modulation of Glucocorticoid Receptor (GRAMMER), MMTV-LUC reporter gene in A549 cells; format: cell-based; conditions: Table 1; for Emax: A549, A549 cells, Emax relative to 300 nM dexamethasone, read-out: Transactivation A549 Cells GRAMMER Emax; for EC50: inflection point, A549 cells, read-out: Transactivation A549 Cells GRAMMER IP
T1 construct: These cells express large amount of the GR and are very responsive to GC treatment; endogenous in cells; host or cells: A549 cells transiently transfected with the MMTV-LUC reporter
T1 sequence (P04150 1-777): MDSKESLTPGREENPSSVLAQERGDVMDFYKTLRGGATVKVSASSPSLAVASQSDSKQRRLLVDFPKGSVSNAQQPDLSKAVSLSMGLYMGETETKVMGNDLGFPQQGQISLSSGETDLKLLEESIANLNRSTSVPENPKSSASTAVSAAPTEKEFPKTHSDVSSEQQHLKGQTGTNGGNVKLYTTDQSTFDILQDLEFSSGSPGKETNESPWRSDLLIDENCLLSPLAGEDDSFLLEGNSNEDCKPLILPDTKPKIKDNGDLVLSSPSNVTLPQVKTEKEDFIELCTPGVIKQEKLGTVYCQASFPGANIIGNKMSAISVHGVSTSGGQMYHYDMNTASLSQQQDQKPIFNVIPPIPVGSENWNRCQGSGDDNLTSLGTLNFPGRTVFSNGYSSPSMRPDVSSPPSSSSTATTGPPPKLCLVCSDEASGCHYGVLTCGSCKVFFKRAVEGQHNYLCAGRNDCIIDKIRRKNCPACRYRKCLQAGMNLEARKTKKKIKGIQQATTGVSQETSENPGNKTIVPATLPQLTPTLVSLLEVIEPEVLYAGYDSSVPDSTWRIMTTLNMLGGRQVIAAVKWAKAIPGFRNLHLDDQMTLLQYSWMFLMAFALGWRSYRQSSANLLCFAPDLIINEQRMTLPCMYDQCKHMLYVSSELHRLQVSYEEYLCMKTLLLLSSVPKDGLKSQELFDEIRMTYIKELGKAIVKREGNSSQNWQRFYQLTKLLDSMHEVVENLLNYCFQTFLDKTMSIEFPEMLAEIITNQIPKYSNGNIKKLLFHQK
How it was run: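 Luciferase from a transiently transfected MMTV-LUC reporter was measured after 24 h compound exposure (≤1% DMSO) in A549 or MDA-MB-453 cells. For antagonism, the decrease of 10 nM dexamethasone-induced signal was calculated. For agonism, Emax was referenced to 300 nM dexamethasone.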

[2] = target: T2, human GR (Homo sapiens, UniProt P04150); test: Transrepression Assay (GITAR), TNFα-β-lactamase reporter gene in U937 cells; format: cell-based; conditions: for GITAR Greater than by GRAMMER % SEP: GITAR Emax minus GRAMMER Emax; for EC50: inflection point, U937 cells, read-out: Transrepression U937 Cells GITAR IP
T2 construct: U937 cells contain an endogenous glucocorticoid receptor (GR); endogenous in cells; host or cells: U937 cells stably transfected with the TNF-alpha promoter/beta-lactamase reporter
T2 sequence (P04150 1-777): T1 sequence (P04150 1-777)
How it was run: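 Repression of PMA (5 ng/ml final)/LPS (100 ng/ml final)-induced TNF-α promoter activity, read as β-lactamase cleavage of CCF2-AM, in stably transfected U937 cells expressing native GR. Compound added 30-45 min before stimulation, overnight (~18 hr) 37° C; normalized to 100 nM dexamethasone (100%).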

[3] = target: T3, glucocorticoid receptor (GR) (Homo sapiens, UniProt P04150); test: Ligand binding assay (GR BIND), 3H-dexamethasone displacement in MDA-MB-453 cell lysate; conditions: GR BIND Ki, Table 1
T3 sequence (P04150 1-777): T1 sequence (P04150 1-777)
Experimental: Binding Buffer: TEGM (10 mM Tris-HCl, 1 mM EDTA, 10% glycerol, 1 mM beta-mecaptoethanol, 10 mM Sodium Molybdate, pH 7.2)
50% HAP Slurry: Calbiochem Hydroxylapatite, Fast Flow, in 10 mM Tris, pH 8.0 and 1 mM EDTA.
Wash Buffer: 40 mM Tris, pH7.5, 100 mM KCl, 1 mM EDTA and 1 mM EGTA.
Dexmethasone-methyl-^3H, (DEX*); (Amersham cat# TRK645)
Dexamethasone(DEX) (Sigma, cat# D1756):
The cell pellet is washed twice with TEGM (10 mM Tris-HCl, 1 mM EDTA, 10% glycerol, 1 mM beta-mercaptoethanol, 10 mM Sodium Molybdate, pH 7.2). After the final wash, the cells are resuspended in TEGM at a concentration of 10^7 cells/mL. The cell suspension is snap frozen in liquid nitrogen or ethanol/dry ice bath and transferred to −80° C. freezer on dry ice. Before setting up the binding assay, the frozen samples are left on ice-water to just thaw (˜1 hr). Then the samples are centrifuged at 12,500 g to 20,000 g for 30 min at 4° C. The supernatant is used to set-up assay right away. If using 50 μL of supernatant, the test compound can be prepared in 50 μL of the TEGM buffer.
Procedure for Multiple Compound Screening
1×TEGM buffer is prepared, and the isotope-containing assay mixture is prepared in the following order: EtOH (2% final concentration in reaction), ^3H-DEX (Amersham Biosciences) and 1×TEGM. [e.g. For 100 samples, 200 μL (100×2) of EtOH+4.25 μL of 1:10 ^3H-Dex stock+2300 μL (100×23) 1×TEGM]. The compound is serially diluted, e.g., if starting final conc. is 1 μM, and the compound is in 25 μL of solution, for duplicate samples, 75 μL of 4×1 μM solution is made and 3 μL of 100 μM is added to 72 μL of buffer, and 1:5 serial dilution.
25 μL of ^3H-DEX (6 nM) trace and 25 μL compound solution are first mixed together, followed by addition of 50 μL receptor solution. The reaction is gently mixed, spun briefly at about 200 rpm and incubated at 4° C. overnight. 100 μL of 50% HAP slurry is prepared and added to the incubated reaction which is then vortexed and incubated on ice for 5 to 10 minutes. The reaction mixture is vortexed twice more to resuspend HAP while incubating reaction. The samples in 96-well format are then washed in wash buffer using The FilterMate™ Universal Harvester plate washer (Packard). The washing process transfers HAP pellet containing ligand-bound expressed receptor to Unifilter-96 GF/B filter plate (Packard). The HAP pellet on the filter plate is incubated with 50 μL of MICROSCINT (Packard) scintillint for 30 minutes before being counted on the TopCount microscintillation counter (Packard). IC50s are calculated using DEX as a reference.

[4] = U-937, U937 cells, activity repressed by 100 nM dexamethasone = 100%, Table 1, read-out: Transrepression U937 Cells GITAR Emax
[5] = U-937, text statement, 100 nM dexamethasone = 100%, read-out: maximal activity in the transrepression assay (GITAR)

Emax [1] [%] | EC50 [1] [nM] | GITAR Greater than by GRAMMER % SEP ([2]; Table 1) [%] | Emax [2, 4] [%] | Emax [2, 5] [%] | EC50 ([2]; Table 1) [nM] | Ki [3] [nM] | SMILES
11.6 | 1710 | 21.7 | 33.2 | > 5 | 971 | 2.6 | CCN(Cc1ccccc1)C(=O)[C@H]1CCC2=Cc3c(cnn3-c3ccc(F)cc3)C[C@@]21C [Compound 52, (4αR,5S}-N-benzyl-N-ethyl-1-(4-fluorophenyl)-4α-methyl-1,4,4α,5,6,7-hexahydrocyclopenta[f]indazole-5-carboxamide]
18.3 | 2290 | 40.2 | 58.4 | > 5 | 2250 | 37.4 | CC1CC(C)CN(C(=O)[C@H]2CCC3=Cc4c(cnn4-c4ccc(F)cc4)C[C@@]32C)C1 (stereo partly drawn) [Compound 53, (4αR,5S)-5-[(3,5-dimethylpiperidin-1-yl)carbonyl]-1-(4-fluorophenyl)-4α-methyl-1,4,4α,5,6,7-hexahydrocyclopenta[f]indazole]
3.1 | 1250 | 37.4 | 40.5 | > 5 | 2210 | 32.1 | CC(C)CN(C)C(=O)[C@H]1CCC2=Cc3c(cnn3-c3ccc(F)cc3)C[C@@]21C [Compound 54, (4αR,5S)-1-(4-fluorophenyl)-N-isobutyl-N,4α-dimethyl-1,4,4α,5,6,7-hexahydrocyclopenta[f]indazole-5-carboxamide]
1.6 | 5000 | 22.3 | 23.9 | > 5 | 3950 | 53.5 | CCN(CC)C(=O)[C@H]1CCC2=Cc3c(cnn3-c3ccc(F)cc3)C[C@@]21C [Compound 55, (4αR,5S)-N,N-diethyl-1-(4-fluorophenyl)-4α-methyl-1,4,4α,5,6,7-hexahydrocyclopenta[f]indazole-5-carboxamide]
44.1 | 430 | 24.0 | 68.1 | > 5 | 595 | 2.5 | CCCCN(CCC)C(=O)[C@H]1CCC2=Cc3c(cnn3-c3ccc(F)cc3)C[C@@]21C [Compound 56, (4αR,5S)-N-butyl-1-{4-fluorophenyl)-4α-methyl-N-propyl-1,4,4α,5,6,7-hexahydrocyclopenta[f]indazole-5-carboxamide]
71.5 | 227 | 15.3 | 86.8 | > 5 | 122 | 7.3 | CC(C)CN(CC(O)C(F)(F)F)C(=O)[C@H]1CCC2=Cc3c(cnn3-c3ccc(F)cc3)C[C@@]21C (stereo partly drawn) [Compound 58, (4αR,5S)-1-(4-fluorophenyl)-N-isobutyl-4α-methyl-N-(3,3,3-trifluoro-2-hydroxypropyl)-1,4,4α,5,6,7-hexahydrocyclopenta[f]indazole-5-carboxamide]

Continued, compound first:

SMILES | Emax [1] [%] | EC50 [1] [nM] | GITAR Greater than by GRAMMER % SEP ([2]; Table 1) [%] | Emax [2, 4] [%] | Emax [2, 5] [%] | EC50 ([2]; Table 1) [nM] | Ki [3] [nM]
COC[C@H]1CCCN1C(=O)[C@H]1CCC2=Cc3c(cnn3-c3ccc(F)cc3)C[C@@]21C [Compound 43, (4αR,5S)-1-(4-fluorophenyl)-5-{[(2R)-2-(methoxymethyl)pyrrolidin-1-yl]carbonyl}-4α-methyl-1,4,4α,5,6,7-hexahydrocyclopenta[f]indazole] | 1.5 | 5000 | 19.5 | 21 | > 5 | 385 | 49.8
CN(C(=O)[C@H]1CCC2=Cc3c(cnn3-c3ccc(F)cc3)C[C@@]21C)C1CCCCC1 [Compound 44, (4αR,5S)-N-cyclohexyl-1-(4-fluorophenyl)-N,4α-dimethyl-1,4,4α,5,6,7-hexahydrocyclopenta[f]indazole-5-carboxamide] | 3.2 | 398 | 35.3 | 38.5 | > 5 | 1810 | 23.2
COCCN(Cc1ccc(OC)cc1)C(=O)[C@H]1CCC2=Cc3c(cnn3-c3ccc(F)cc3)C[C@@]21C [Compound 45, (4αR,5S)-1-(4-fluorophenyl)-N-(4-methoxybenzyl)-N-(2-methoxyethyl)-4α-methyl-1,4,4α,5,6,7-hexahydrocyclopenta[f]indazole-5-carboxamide] | 2.2 | 2140 | 17.1 | 19.3 | > 5 | 158 | 8.7
CN(Cc1cccc(C(F)(F)F)c1)C(=O)[C@H]1CCC2=Cc3c(cnn3-c3ccc(F)cc3)C[C@@]21C [Compound 46, (4αR,5S)-1-(4-fluorophenyl)-N,4α-dimethyl-N-[3-(trifluoromethyl)benzyl]-1,4,4α,5 ,6,7-hexahydrocyclopenta[f]indazole-5-carboxamide] | 2.6 | 2410 | 12.7 | 15.3 | > 5 | 87.4 | 17.6
COc1cccc(CN(C)C(=O)[C@H]2CCC3=Cc4c(cnn4-c4ccc(F)cc4)C[C@@]32C)c1 [Compound 47, (4αR,5S)-1-(4-fluorophenyl)-N-(3-methoxybenzyl)-N,4α-dimethyl-1,4,4α,5,6,7-hexahydrocyclopenta[f]indazole-5-carboxamide] | 7.4 | 2020 | 20.4 | 27.8 | > 5 | 1690 | 7.1
CN(CCOc1ccccc1)C(=O)[C@H]1CCC2=Cc3c(cnn3-c3ccc(F)cc3)C[C@@]21C [Compound 48, (4αR,5S)-1-(4-fluorophenyl)-N,4α-dimethyl-N-(2-phenoxyethyl)-1,4,4α,5,6,7-hexahydrocyclopenta[f] indazole-5-carboxamide] | 2.7 | 1390 | 20.0 | 22.8 | > 5 | 410 | 7
C[C@]12Cc3cnn(-c4ccc(F)cc4)c3C=C1CC[C@@H]2C(=O)N(CCc1ccccc1)Cc1ccccc1 [Compound 49, (4αR,5S)-N-benzyl-1-(4-fluorophenyl)-4α-methyl-N-(2-phenylethyl)-1,4,4,5,6,7-hexahydrocyclopenta[f]indazole-5-carboxamide] | 1.5 | 260 | 10.1 | 11.6 | > 5 | 145 | 1.9
COc1ccccc1CN(C)C(=O)[C@H]1CCC2=Cc3c(cnn3-c3ccc(F)cc3)C[C@@]21C [Compound 50, (4αR,5S)-1-{4-fluorophenyl)-N-(2-methoxybenzyl)-N,4α-dimethyl-hexahydrocyclopenta[f]indazole-5-carboxamide] | 3.4 | 1460 | 16.9 | 20.3 | > 5 | 226 | 9
C[C@]12Cc3cnn(-c4ccc(F)cc4)c3C=C1CC[C@@H]2C(=O)N1CCC(S(=O)(=O)c2ccccc2)CC1 [Compound 51, (4αR,5S)-1-(4-fluorophenyl)-4α-methyl-5-{[4-(phenylsulfonyl)piperidin-1-yl]carbonyl}1,4,4α,5,6,7-hexahydrocyclopenta[f]indazole] | 2.9 | 1190 | 32.2 | 35.1 | > 5 | 1380 | 39.5
